The values that follow come from US20100184047A1, “SCREENING AND THERAPEUTIC METHOD FOR NSCLC TARGETING THE CDCA8-AURKB COMPLEX” (ONCOTHERAPY SCIENCE, INC., priority 2007, published 2010).

Holding throughout (format): cell-based, human
In data set [1] the test system is AURKB. Put plainly: AURKB knock-down by siRNA against AURKB, western blot. To be noted: LC319 cells. Here is the method:
(§1) Cells were lysed in lysis buffer; 50 mM Tris-HCl (pH 8.0), 150 mM NaCl, 0.5% NP-40, 0.5% deoxycholate-Na, 0.1% SDS, plus protease inhibitor (Protease Inhibitor Cocktail Set III; Calbiochem Darmstadt, Germany). An ECL western-blot analysis system was used (GE Healthcare Bio-sciences, Piscataway, N.J.), as previously described (Kato T, et al., Cancer Res. 2005 Jul. 1; 65(13):5638-46; Furukawa C, et al., Cancer Res. 2005 Aug. 15; 65(16):7102-10).
(§2) A vector-based RNA interference (RNAi) system, psiH1BX3.0, which was designed to synthesize siRNAs in mammalian cells was previously established (Suzuki C, et al., Cancer Res. 2003 Nov. 1; 63(21):7038-41; Kato T, et al., Cancer Res. 2005 Jul. 1; 65(13):5638-46; Furukawa C, et al., Cancer Res. 2005 Aug. 15; 65(16):7102-10; Suzuki C, et al., Cancer Res. 2005 Dec. 15; 65(24):11314-25. Ishikawa N, et al., Cancer Sci. 2006 August; 97(8):737-45; Takahashi K, et al., Cancer Res. 2006 Oct. 1; 66(19):9408-19; Hayama S, et al., Cancer Res. 2006 Nov. 1; 66(21):10339-48). 10 micrograms of siRNA-expression vector was transfected using 30 microliters of Lipofectamine 2000 (Invitrogen) into lung-cancer cell lines, LC319 and SBC-5. The transfected cells were cultured for seven days in the presence of appropriate concentrations of geneticin (G418), and the number of colonies was counted by Giemsa staining, and viability of cells was evaluated by MTT assay (cell-counting kit-8 solution; DOJINDO, Kumamoto, Japan), at 7 days after the G418 treatment. To confirm suppression of CDCA8 protein expression, western blotting was carried out with affinity-purified polyclonal antibody to CDCA8 according to the standard protocol. The target sequences of the synthetic oligonucleotides for RNAi were as follows:
Furthermore, to inhibit the AURKB activity in mammalian cells, siRNA oligos were constructed against AURKB (si-AURKB-#1 and -#2), as well as control siRNA oligos for EGFP. […]
#2: 5′-ACGCGGCACUUCACAAUUG-3′ (SEQ ID NO: 63)) in a final concentration of 100 nM. […] The cells were collected and analyzed after additional 72-hour culture.

For data set [2], the system named is CDCA8 transcripts. Put plainly: Semi-quantitative RT-PCR of CDCA8 transcript after AURKB knock-down. The settings on record: LC319 cells. As to the method: Total RNA was extracted from cultured cells and clinical tissues using Trizol reagent (Life Technologies, Inc., Gaithersburg, Md.) according to the manufacturer's protocol. Extracted RNAs and normal human tissue poly(A) RNAs were treated with DNase I (Nippon Gene, Tokyo, Japan) and reversely-transcribed using oligo (dT) primer and SuperScript II reverse transcriptase (Invitrogen, Carlsbad, Calif.). Semi-quantitative RT-PCR experiments were carried out with the following synthesized CDCA8-specific primers, AURKB-specific primers, E2F-1-specific primers, or with beta-actin (ACTB)-specific primers as an internal control:
(§3) Cells seeded onto 10 cm-dishes were incubated in mixtures of both Lipofectamine (Invitrogen) and control 3 (5′-GAAGCAGCACGACUUCUUC-3′ (SEQ ID NO: 61)) or si-AURKBs (#1: 5′-CCAAACUGCUCAGGCAUAA-3′ (SEQ ID NO: 62);
(§4) #2: 5′-ACGCGGCACUUCACAAUUG-3′ (SEQ ID NO: 63)) in a final concentration of 100 nM. At 4 hours after transfection, the siRNA-lipofectamine mixtures were replaced with fresh media. The cells were collected and analyzed after additional 72-hour culture.

Data set [3] concerns CDCA8. In words: Western blot of endogenous CDCA8 protein after AURKB knock-down. The settings on record: LC319 cells. Here is the method: as §1, §2
Furthermore, to inhibit the AURKB activity in mammalian cells, siRNA oligos were constructed against AURKB (si-AURKB-#1 and -#2), as well as control siRNA oligos for EGFP. The target sequences of the synthetic oligonucleotides for RNAi were as follows:
as §3, §4

The test system of data set [4] is CDCA8. Put plainly: RNA interference with si-CDCA8 vectors, western blot of CDCA8 protein. The settings on record: in comparison with two control siRNAs (EGFP, Luciferase). As to the method: as §1
as §2, with “follows: […]” for “follows:”

The test system of data set [5] is SBC-5 cells. Put plainly: MTT assay after siRNA-expression vector transfection. The settings on record: 7 days after G418 treatment, vs control siRNAs.
Excerpt: as §2, with “follows: […]” for “follows:”

Data set [6] relates to LC319 cells. The description is as above. The settings on record: 7 days after G418 treatment, vs control siRNAs.
Excerpt: as §2, with “follows: […]” for “follows:”

In data set [7] the test system is SBC-5 cells. In words: Colony formation assay after siRNA-expression vector transfection. The settings on record: Giemsa staining, vs control siRNAs.
Excerpt: as §2, with “follows: […]” for “follows:”

Data set [8] relates to LC319 cells. Described as above. The settings on record: Giemsa staining, vs control siRNAs.
Excerpt: as §2, with “follows: […]” for “follows:”

“Also recorded” adds a separate entry of the source.

In the case of “5′-GGTGATTCACAGAGACATA-3′ (GGTGATTCACAGAGACATATTCAAGAGATATGTCTCTGTGAATCACC; expressed or natural sequence) [si-AURKB]”, the “AURKB expression / AURKB protein” value in data set [1] is listed as “selectively knocked down; also recorded: Reduction”. The “level of CDCA8 transcripts” value in data set [2] is given as “not influenced”. Further, in data set [3], the “amount of CDCA8 protein” value is reported as “decreased” and the “phosphorylation levels of CDCA8” value is “decreased”.
As to “5′-CCAAACUGCUCAGGCAUAA-3′ (listed as RNA, chemistry not given here) [si-AURKB-#1]”, the “AURKB expression / AURKB protein” value in data set [1] is “Reduction”. Moreover, the “level of CDCA8 transcripts” value in data set [2] was “not influenced”. For the same substance, the “amount of CDCA8 protein” value in data set [3] is “dramatically decreased”.
The matching figures for “5′-ACGCGGCACUUCACAAUUG-3′ (listed as RNA, chemistry not given here) [si-AURKB-#2]”: “Reduction”, “not influenced” and “dramatically decreased”.
As for “5′-CAGCAGAAGCTATTCAGAC-3′ (CAGCAGAAGCTATTCAGACTTCAAGAGAGTCTGAATAGCTTCTGCTG; expressed or natural sequence) [si-CDCA8-#1]”, the “expression of endogenous CDCA8 proteins” value in data set [4] (LC319 cells) and in data set [4] (SBC-5 cells) was “significantly suppressed” throughout. The “cell viability (MTT assay)” value in data set [5] and in data set [6] was “significant decreases” each time. In addition, the “colony numbers (colony-formation assay)” value in data set [7] and in data set [8] was “significant decreases” in each case.
With “5′-GCCGTGCTAACACTGTTAC-3′ (GCCGTGCTAACACTGTTACTTCAAGAGAGTAACAGTGTTAGCACGGC; expressed or natural sequence) [si-CDCA8-#2]”, the “expression of endogenous CDCA8 proteins” value in data set [4] (LC319 cells) and in data set [4] (SBC-5 cells) was “significantly suppressed” throughout. Also, the “cell viability (MTT assay)” value in data set [5] and in data set [6] was “significant decreases” each time. For the same substance, the “colony numbers (colony-formation assay)” value in data set [7] and in data set [8] was “significant decreases” throughout.
